Measurements reported in the kinase profiling compilation of Christmann-Franck et al. (2016).

Legend:
Assay in all cases: radiometric filter-binding kinase assay
[1] = test system: AKT2 (human), P31751 [S474D]
AURKA (human) = AURKA (human) (UniProt O14965)
AURKB (human) = AURKB (human) (UniProt Q96GD4)
CHEK1 (human) = CHEK1 (human) (UniProt O14757)
CSNK1D (human) = CSNK1D (human) (UniProt P48730)
EEF2K (human) = EEF2K (human) (UniProt O00418)
EPHB1 (human) = EPHB1 (human) (UniProt P54762)
EPHB4 (human) = EPHB4 (human) (UniProt P54760)
FGFR1 (human) = FGFR1 (human) (UniProt P11362)
FLT1 (human) = FLT1 (human) (UniProt P17948)
GCK (human) = GCK (human) (UniProt Q12851)
GSK3B (human) = GSK3B (human) (UniProt P49841)
HIPK1 (human) = HIPK1 (human) (UniProt Q86Z02)
HIPK2 (human) = HIPK2 (human) (UniProt Q9H2X6)
IGF1R (human) = IGF1R (human) (UniProt P08069)
MAP2K2 (human) = MAP2K2 (human) (UniProt P36507)
MAP3K5 (human) = MAP3K5 (human) (UniProt Q99683)
MAP3K9 (human) = MAP3K9 (human) (UniProt P80192)
MAPK1 (human) = MAPK1 (human) (UniProt P28482)
MAPK10 (human) = MAPK10 (human) (UniProt P53779)
MAPK13 (human) = MAPK13 (human) (UniProt O15264)
MAPK9 (human) = MAPK9 (human) (UniProt P45984)
MARK4 (human) = MARK4 (human) (UniProt Q96L34)
MELK (human) = MELK (human) (UniProt Q14680)
MYLK (human) = MYLK (human) (UniProt Q15746)
[2] = test system: PAK2 (human), Q13177 [T402E]
PAK6 (human) = PAK6 (human) (UniProt Q9NQU5)
PKN2 (human) = PKN2 (human) (UniProt Q16513)
PRKCZ (human) = PRKCZ (human) (UniProt Q05513)
SRC (human) = SRC (human) (UniProt P12931)
[3] = target: STK11 CAB39 STRADA (human) (UniProt Q9Y376+Q7RTN6+Q15831)
SYK (human) = SYK (human) (UniProt P43405)
TAOK1 (human) = TAOK1 (human) (UniProt Q7L7X3)
TTK (human) = TTK (human) (UniProt P33981)
YES1 (human) = YES1 (human) (UniProt P07947)

Chain of MAP3K5 (human) (Q99683 whole entry, looked up): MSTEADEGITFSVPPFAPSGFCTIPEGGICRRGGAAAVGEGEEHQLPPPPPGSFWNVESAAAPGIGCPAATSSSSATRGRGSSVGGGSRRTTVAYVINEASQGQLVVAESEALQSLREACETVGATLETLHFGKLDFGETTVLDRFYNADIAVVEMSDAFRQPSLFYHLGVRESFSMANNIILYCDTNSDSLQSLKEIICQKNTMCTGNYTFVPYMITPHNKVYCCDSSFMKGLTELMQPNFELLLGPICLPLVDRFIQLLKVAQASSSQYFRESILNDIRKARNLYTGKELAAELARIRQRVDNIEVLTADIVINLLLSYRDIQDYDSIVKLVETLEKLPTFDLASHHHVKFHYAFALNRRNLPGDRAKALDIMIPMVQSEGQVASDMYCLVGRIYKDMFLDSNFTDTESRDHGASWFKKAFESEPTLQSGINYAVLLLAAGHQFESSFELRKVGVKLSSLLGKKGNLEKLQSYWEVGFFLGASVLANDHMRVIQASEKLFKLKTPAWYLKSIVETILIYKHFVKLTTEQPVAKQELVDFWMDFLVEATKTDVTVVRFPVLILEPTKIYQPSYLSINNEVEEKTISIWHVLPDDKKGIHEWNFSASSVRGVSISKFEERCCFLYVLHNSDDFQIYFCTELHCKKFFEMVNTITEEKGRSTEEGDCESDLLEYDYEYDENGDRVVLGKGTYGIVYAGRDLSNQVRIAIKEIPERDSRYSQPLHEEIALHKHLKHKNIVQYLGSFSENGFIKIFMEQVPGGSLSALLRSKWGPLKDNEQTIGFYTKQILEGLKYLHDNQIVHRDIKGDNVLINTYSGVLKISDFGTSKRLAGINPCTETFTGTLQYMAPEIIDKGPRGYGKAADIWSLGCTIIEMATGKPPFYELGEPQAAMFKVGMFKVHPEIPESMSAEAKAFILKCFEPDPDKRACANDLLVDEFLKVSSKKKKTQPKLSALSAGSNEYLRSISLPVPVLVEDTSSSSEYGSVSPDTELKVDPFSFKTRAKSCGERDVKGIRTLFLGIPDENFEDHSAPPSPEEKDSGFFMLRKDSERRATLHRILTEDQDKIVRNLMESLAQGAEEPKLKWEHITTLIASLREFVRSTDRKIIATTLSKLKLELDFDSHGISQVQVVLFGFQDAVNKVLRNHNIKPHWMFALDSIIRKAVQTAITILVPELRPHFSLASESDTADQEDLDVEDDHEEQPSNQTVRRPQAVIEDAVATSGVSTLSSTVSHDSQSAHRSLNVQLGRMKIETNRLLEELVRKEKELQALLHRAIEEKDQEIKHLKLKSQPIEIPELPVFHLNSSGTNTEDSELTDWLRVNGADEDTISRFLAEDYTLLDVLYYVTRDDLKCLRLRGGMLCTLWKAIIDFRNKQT
Chain of EPHB1 (human) (P54762 whole entry, looked up): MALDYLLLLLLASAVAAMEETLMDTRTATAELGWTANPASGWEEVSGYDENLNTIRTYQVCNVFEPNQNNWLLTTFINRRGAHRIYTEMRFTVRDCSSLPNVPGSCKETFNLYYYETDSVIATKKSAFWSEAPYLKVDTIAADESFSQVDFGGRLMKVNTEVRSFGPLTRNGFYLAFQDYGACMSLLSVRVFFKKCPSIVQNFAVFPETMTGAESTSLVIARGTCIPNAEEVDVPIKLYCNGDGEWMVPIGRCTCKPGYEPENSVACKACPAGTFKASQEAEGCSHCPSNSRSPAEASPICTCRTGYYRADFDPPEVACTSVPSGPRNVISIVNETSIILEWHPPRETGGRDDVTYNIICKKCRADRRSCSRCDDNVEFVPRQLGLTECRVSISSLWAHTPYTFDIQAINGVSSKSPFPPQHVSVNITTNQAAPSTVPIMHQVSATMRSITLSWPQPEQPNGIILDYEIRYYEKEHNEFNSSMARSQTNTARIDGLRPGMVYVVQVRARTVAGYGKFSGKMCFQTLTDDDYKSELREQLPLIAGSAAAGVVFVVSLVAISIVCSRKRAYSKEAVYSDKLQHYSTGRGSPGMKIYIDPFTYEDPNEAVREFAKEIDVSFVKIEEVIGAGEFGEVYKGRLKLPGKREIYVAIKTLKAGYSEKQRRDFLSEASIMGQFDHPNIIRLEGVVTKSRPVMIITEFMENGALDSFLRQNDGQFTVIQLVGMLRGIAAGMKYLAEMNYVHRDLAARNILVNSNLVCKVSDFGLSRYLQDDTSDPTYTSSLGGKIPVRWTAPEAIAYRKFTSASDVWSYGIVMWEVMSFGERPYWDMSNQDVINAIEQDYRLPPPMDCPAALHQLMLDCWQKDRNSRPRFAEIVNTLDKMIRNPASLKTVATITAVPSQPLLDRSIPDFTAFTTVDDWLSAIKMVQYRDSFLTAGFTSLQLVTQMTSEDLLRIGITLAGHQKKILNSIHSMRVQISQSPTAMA
Chain of FGFR1 (human) (P11362 whole entry, looked up): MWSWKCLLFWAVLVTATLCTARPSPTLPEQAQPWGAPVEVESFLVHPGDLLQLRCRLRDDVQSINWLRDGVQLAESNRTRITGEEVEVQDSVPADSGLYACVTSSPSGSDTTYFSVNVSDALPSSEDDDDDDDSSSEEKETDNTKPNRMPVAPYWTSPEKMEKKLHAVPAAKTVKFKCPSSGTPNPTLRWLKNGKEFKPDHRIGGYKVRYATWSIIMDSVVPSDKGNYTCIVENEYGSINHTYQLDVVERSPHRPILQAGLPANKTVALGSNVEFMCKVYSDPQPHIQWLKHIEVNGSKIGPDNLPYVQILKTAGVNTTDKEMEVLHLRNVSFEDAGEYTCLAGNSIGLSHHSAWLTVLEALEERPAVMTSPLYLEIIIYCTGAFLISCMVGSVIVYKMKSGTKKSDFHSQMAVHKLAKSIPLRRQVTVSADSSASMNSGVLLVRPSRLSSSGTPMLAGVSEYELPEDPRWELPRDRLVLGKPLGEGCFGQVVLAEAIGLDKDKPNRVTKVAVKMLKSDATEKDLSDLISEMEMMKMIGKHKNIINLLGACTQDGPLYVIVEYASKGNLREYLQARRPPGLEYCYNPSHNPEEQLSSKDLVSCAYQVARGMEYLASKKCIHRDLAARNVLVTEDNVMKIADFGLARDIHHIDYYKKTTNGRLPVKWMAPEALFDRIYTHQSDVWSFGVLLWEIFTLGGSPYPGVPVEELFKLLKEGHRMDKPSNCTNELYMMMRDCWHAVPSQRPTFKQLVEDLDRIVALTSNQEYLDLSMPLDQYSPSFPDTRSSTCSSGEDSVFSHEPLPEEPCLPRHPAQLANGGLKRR
Chain of AURKB (human) (Q96GD4 whole entry, looked up): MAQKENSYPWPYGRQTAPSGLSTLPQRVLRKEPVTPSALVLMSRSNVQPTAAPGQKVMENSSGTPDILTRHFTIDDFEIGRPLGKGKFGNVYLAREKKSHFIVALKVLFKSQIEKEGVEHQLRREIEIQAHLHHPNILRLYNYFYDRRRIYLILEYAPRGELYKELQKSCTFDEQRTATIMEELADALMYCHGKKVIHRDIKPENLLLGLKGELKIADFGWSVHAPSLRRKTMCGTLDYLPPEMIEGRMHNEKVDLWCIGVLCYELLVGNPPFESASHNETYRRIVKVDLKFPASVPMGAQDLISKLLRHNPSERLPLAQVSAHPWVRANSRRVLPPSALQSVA
Chain of MAP2K2 (human) (P36507 whole entry, looked up): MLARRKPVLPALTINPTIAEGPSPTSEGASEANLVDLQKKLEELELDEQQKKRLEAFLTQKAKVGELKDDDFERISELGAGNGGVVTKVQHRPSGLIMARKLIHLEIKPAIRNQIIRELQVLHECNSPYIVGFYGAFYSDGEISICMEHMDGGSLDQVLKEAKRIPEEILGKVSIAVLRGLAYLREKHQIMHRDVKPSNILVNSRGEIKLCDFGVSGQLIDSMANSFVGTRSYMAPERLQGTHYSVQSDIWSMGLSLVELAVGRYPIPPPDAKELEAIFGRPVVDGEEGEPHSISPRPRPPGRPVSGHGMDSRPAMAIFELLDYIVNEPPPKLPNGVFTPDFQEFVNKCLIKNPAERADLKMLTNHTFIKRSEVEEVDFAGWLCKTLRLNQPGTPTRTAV
Chain of MAPK13 (human) (O15264 whole entry, looked up): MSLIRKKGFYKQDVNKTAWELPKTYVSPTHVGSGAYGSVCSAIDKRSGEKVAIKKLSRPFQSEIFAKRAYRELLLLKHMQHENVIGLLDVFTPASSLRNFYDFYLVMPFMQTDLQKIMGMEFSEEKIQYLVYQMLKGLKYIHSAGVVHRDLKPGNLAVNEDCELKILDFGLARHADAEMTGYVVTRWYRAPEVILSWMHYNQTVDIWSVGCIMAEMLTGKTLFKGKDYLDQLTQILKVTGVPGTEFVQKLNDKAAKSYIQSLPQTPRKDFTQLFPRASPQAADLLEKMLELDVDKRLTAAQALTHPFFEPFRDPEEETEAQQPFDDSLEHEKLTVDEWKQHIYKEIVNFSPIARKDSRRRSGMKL
Chain of CSNK1D (human) (P48730 whole entry, looked up): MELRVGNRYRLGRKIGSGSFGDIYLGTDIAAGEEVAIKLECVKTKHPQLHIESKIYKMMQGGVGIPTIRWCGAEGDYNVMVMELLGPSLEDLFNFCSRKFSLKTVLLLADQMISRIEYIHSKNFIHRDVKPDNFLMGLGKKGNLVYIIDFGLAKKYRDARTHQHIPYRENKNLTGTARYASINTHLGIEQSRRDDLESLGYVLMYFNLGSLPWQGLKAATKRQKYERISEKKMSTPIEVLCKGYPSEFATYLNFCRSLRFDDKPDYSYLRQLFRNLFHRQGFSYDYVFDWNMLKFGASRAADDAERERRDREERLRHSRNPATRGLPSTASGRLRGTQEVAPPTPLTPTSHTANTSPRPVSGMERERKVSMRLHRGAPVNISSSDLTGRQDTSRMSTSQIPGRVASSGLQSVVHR

Cc1cc(NC(=O)c2cccc(NC(=O)/C=C/CN(C)C)c2)ccc1Nc1nccc(-c2cccnc2)n1
residual activity ([1]; compound 0.1 µM): 99%
residual activity ([1]; compound 1.0 µM): 91%
residual activity (AURKA (human); compound 0.1 µM): 97%
residual activity (AURKA (human); compound 1.0 µM): 91%
residual activity (AURKB (human); compound 0.1 µM): 87%
residual activity (AURKB (human); compound 1.0 µM): 86%
residual activity (CHEK1 (human); compound 0.1 µM): 102%
residual activity (CHEK1 (human); compound 1.0 µM): 87%
residual activity (CSNK1D (human); compound 0.1 µM): 89%
residual activity (CSNK1D (human); compound 1.0 µM): 57%
residual activity (EEF2K (human); compound 0.1 µM): 98%
residual activity (EEF2K (human); compound 1.0 µM): 95%
residual activity (EPHB1 (human); compound 0.1 µM): 97%
residual activity (EPHB1 (human); compound 1.0 µM): 95%
residual activity (EPHB4 (human); compound 0.1 µM): 97%
residual activity (EPHB4 (human); compound 1.0 µM): 98%
residual activity (FGFR1 (human); compound 0.1 µM): 103%
residual activity (FGFR1 (human); compound 1.0 µM): 82%
residual activity (FLT1 (human); compound 0.1 µM): 100%
residual activity (FLT1 (human); compound 1.0 µM): 53%
residual activity (GCK (human); compound 0.1 µM): 98%
residual activity (GCK (human); compound 1.0 µM): 73%
residual activity (GSK3B (human); compound 0.1 µM): 114%
residual activity (GSK3B (human); compound 1.0 µM): 90%
residual activity (HIPK1 (human); compound 0.1 µM): 103%
residual activity (HIPK1 (human); compound 1.0 µM): 87%
residual activity (HIPK2 (human); compound 0.1 µM): 92%
residual activity (HIPK2 (human); compound 1.0 µM): 99%
residual activity (IGF1R (human); compound 1.0 µM): 87%
residual activity (MAP2K2 (human); compound 0.1 µM): 98%
residual activity (MAP2K2 (human); compound 1.0 µM): 92%
residual activity (MAP3K5 (human); compound 0.1 µM): 100%
residual activity (MAP3K5 (human); compound 1.0 µM): 91%
residual activity (MAP3K9 (human); compound 0.1 µM): 98%
residual activity (MAP3K9 (human); compound 1.0 µM): 88%
residual activity (MAPK1 (human); compound 0.1 µM): 110%
residual activity (MAPK1 (human); compound 1.0 µM): 100%
residual activity (MAPK10 (human); compound 0.1 µM): 14%
residual activity (MAPK10 (human); compound 1.0 µM): 13%
residual activity (MAPK13 (human); compound 0.1 µM): 96%
residual activity (MAPK13 (human); compound 1.0 µM): 80%
residual activity (MAPK9 (human); compound 1.0 µM): 17%
residual activity (MARK4 (human); compound 0.1 µM): 101%
residual activity (MARK4 (human); compound 1.0 µM): 84%
residual activity (MELK (human); compound 0.1 µM): 91%
residual activity (MELK (human); compound 1.0 µM): 63%
residual activity (MYLK (human); compound 0.1 µM): 97%
residual activity (MYLK (human); compound 1.0 µM): 96%
residual activity ([2]; compound 0.1 µM): 99%
residual activity ([2]; compound 1.0 µM): 90%
residual activity (PAK6 (human); compound 0.1 µM): 110%
residual activity (PAK6 (human); compound 1.0 µM): 96%
residual activity (PKN2 (human); compound 0.1 µM): 112%
residual activity (PKN2 (human); compound 1.0 µM): 95%
residual activity (PRKCZ (human); compound 0.1 µM): 116%
residual activity (PRKCZ (human); compound 1.0 µM): 89%
residual activity (SRC (human); compound 0.1 µM): 85%
residual activity (SRC (human); compound 1.0 µM): 50%
residual activity ([3]; compound 0.1 µM): 106%
residual activity ([3]; compound 1.0 µM): 95%
residual activity (SYK (human); compound 0.1 µM): 103%
residual activity (SYK (human); compound 1.0 µM): 88%
residual activity (TAOK1 (human); compound 0.1 µM): 124%
residual activity (TAOK1 (human); compound 1.0 µM): 97%
residual activity (TTK (human); compound 0.1 µM): 85%
residual activity (TTK (human); compound 1.0 µM): 65%
residual activity (YES1 (human); compound 0.1 µM): 87%
residual activity (YES1 (human); compound 1.0 µM): 39%

NC(=O)c1c(NC(=O)C2CC2)sc2c1CCCC2
residual activity ([1]; compound 1.0 µM): 100%
residual activity ([1]; compound 10.0 µM): 96%
residual activity (AURKA (human); compound 1.0 µM): 87%
residual activity (AURKA (human); compound 10.0 µM): 22%
residual activity (AURKB (human); compound 1.0 µM): 79%
residual activity (AURKB (human); compound 10.0 µM): 62%
residual activity (CHEK1 (human); compound 1.0 µM): 95%
residual activity (CHEK1 (human); compound 10.0 µM): 84%
residual activity (CSNK1D (human); compound 1.0 µM): 96%
residual activity (CSNK1D (human); compound 10.0 µM): 81%
residual activity (EEF2K (human); compound 1.0 µM): 97%
residual activity (EEF2K (human); compound 10.0 µM): 90%
residual activity (EPHB1 (human); compound 1.0 µM): 117%
residual activity (EPHB4 (human); compound 1.0 µM): 101%
residual activity (EPHB4 (human); compound 10.0 µM): 55%
residual activity (FGFR1 (human); compound 1.0 µM): 105%
residual activity (FGFR1 (human); compound 10.0 µM): 46%
residual activity (FLT1 (human); compound 1.0 µM): 45%
residual activity (FLT1 (human); compound 10.0 µM): 9%
residual activity (GCK (human); compound 1.0 µM): 69%
residual activity (GCK (human); compound 10.0 µM): 17%
residual activity (GSK3B (human); compound 1.0 µM): 90%
residual activity (GSK3B (human); compound 10.0 µM): 42%
residual activity (HIPK1 (human); compound 1.0 µM): 100%
residual activity (HIPK1 (human); compound 10.0 µM): 87%
residual activity (HIPK2 (human); compound 1.0 µM): 94%
residual activity (HIPK2 (human); compound 10.0 µM): 52%
residual activity (IGF1R (human); compound 1.0 µM): 86%
residual activity (IGF1R (human); compound 10.0 µM): 79%
residual activity (MAP2K2 (human); compound 1.0 µM): 93%
residual activity (MAP2K2 (human); compound 10.0 µM): 74%
residual activity (MAP3K5 (human); compound 1.0 µM): 106%
residual activity (MAP3K5 (human); compound 10.0 µM): 96%
residual activity (MAP3K9 (human); compound 1.0 µM): 72%
residual activity (MAP3K9 (human); compound 10.0 µM): 32%
residual activity (MAPK1 (human); compound 1.0 µM): 99%
residual activity (MAPK1 (human); compound 10.0 µM): 89%
residual activity (MAPK10 (human); compound 1.0 µM): 94%
residual activity (MAPK10 (human); compound 10.0 µM): 84%
residual activity (MAPK13 (human); compound 1.0 µM): 116%
residual activity (MAPK13 (human); compound 10.0 µM): 97%
residual activity (MAPK9 (human); compound 1.0 µM): 106%
residual activity (MAPK9 (human); compound 10.0 µM): 96%
residual activity (MARK4 (human); compound 1.0 µM): 105%
residual activity (MARK4 (human); compound 10.0 µM): 69%
residual activity (MELK (human); compound 1.0 µM): 71%
residual activity (MELK (human); compound 10.0 µM): 44%
residual activity (MYLK (human); compound 1.0 µM): 96%
residual activity (MYLK (human); compound 10.0 µM): 49%
residual activity ([2]; compound 1.0 µM): 92%
residual activity ([2]; compound 10.0 µM): 96%
residual activity (PAK6 (human); compound 1.0 µM): 83%
residual activity (PAK6 (human); compound 10.0 µM): 80%
residual activity (PKN2 (human); compound 1.0 µM): 106%
residual activity (PKN2 (human); compound 10.0 µM): 97%
residual activity (PRKCZ (human); compound 1.0 µM): 104%
residual activity (PRKCZ (human); compound 10.0 µM): 104%
residual activity (SRC (human); compound 1.0 µM): 102%
residual activity (SRC (human); compound 10.0 µM): 87%
residual activity ([3]; compound 1.0 µM): 91%
residual activity ([3]; compound 10.0 µM): 81%
residual activity (SYK (human); compound 1.0 µM): 102%
residual activity (SYK (human); compound 10.0 µM): 106%
residual activity (TAOK1 (human); compound 1.0 µM): 87%
residual activity (TAOK1 (human); compound 10.0 µM): 69%
residual activity (TTK (human); compound 1.0 µM): 100%
residual activity (TTK (human); compound 10.0 µM): 80%
residual activity (YES1 (human); compound 1.0 µM): 92%
residual activity (YES1 (human); compound 10.0 µM): 79%
